One block for each molecule: values may come before it.
What was measured:
[1] = target: T1, CthTpt1 (Acetivibrio thermocellus, UniProt A3DJX6); assay: X-ray crystal structure, […] Å; type: binding; details: acquired during production in E. coli, pH 6.0
T1 construct: gene kptA; 182-aa polypeptide, His6-tagged, recombinant from E. coli; Leu3-Glu182 modelled; one protomer in the asymmetric unit

[2] = target: T2, CthTpt1 (Acetivibrio thermocellus, UniProt A3DJX6, C46S); assay: X-ray crystal structure, […] Å; type: binding; details: NAD+ site; CoA absent from RNA lobe; acquired during production in E. coli; pH 8.5
T2 construct: gene kptA; 182-aa polypeptide, His6-tagged, recombinant from E. coli; Leu3-Glu182 modelled; one protomer in the asymmetric unit
T2 sequence (A3DJX6 whole entry C46S): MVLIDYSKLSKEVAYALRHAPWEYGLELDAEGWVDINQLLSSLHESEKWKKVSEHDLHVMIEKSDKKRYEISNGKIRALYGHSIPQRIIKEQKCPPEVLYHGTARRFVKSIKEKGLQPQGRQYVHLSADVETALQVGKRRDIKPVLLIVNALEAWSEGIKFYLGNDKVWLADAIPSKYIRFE

[3] = target: T3, RslTpt1 (Runella slithyformis, UniProt A0A7U3ZK32, H99A/T101A); assay: RNA […]'-phosphotransferase assay, […]-labelled 6-mer RNA, urea-PAGE; type: biochemical; details: 1 mM NAD+, 0.2 µM 2'-PO4 6-mer RNA, 0.01 µM enzyme, 30 min, pH 7.5, 37 °C
T3 construct: gene kptA; His6-tagged, recombinant from E. coli, Ni-NTA and gel filtration
T3 sequence (A0A7U3ZK32 entry or part of it H99A/T101A): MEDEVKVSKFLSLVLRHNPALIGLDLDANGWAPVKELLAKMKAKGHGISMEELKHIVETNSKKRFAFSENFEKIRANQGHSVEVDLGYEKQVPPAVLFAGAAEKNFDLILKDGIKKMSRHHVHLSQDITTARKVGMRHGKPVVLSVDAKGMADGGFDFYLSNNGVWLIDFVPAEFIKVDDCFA

T1 sequence (A3DJX6 whole entry): as the sequence (A3DJX6 whole entry C46S) above, with S46C counted along it

SMILES: Nc1ncnc2c1ncn2[C@@H]1O[C@H](COP(=O)(O)OP(=O)(O)OC[C@H]2O[C@H](OP(=O)(O)O)[C@H](O)[C@@H]2O)[C@@H](O)[C@H]1O [ADP-ribose-1″-phosphate]
X-ray crystal structure, 1.4 Å ([1]; NAD+ site (C-terminal lobe), CoA also bound): The molecule associated with the C-terminal lobe was unambiguously modeled as ADP-ribose-1″-phosphate
X-ray crystal structure, 1.55 Å [2]: ADP-ribose-1″-phosphate was bound to the NAD^+ lobe

% of input RNA converted to 2′-OH product [3]: 4%
SMILES: NC(=O)c1ccc[n+]([C@@H]2O[C@H](COP(=O)([O-])OP(=O)(O)OC[C@H]3O[C@@H](n4cnc5c(N)ncnc54)[C@H](O)[C@@H]3O)[C@@H](O)[C@H]2O)c1 [NAD^+]

SMILES: CC(C)(COP(=O)(O)OP(=O)(O)OC[C@H]1O[C@@H](n2cnc3c(N)ncnc32)[C@H](O)[C@@H]1OP(=O)(O)O)[C@@H](O)C(=O)NCCC(=O)NCCS [coenzyme A]
X-ray crystal structure, 1.4 Å ([1]; covalent (disulfide to Cys46), pAp moiety in RNA site (N-terminal lobe), ADP-ribose-1″-phosphate also bound): The molecule associated with the N-terminal lobe was convincingly modeled as coenzyme A (CoA)

— PMC6333775, “Structure of tRNA splicing enzyme Tpt1 illuminates the mechanism of RNA 2′-PO4 recognition and ADP-ribosylation” (Nature Communications, 2019)
